For one series, the species on record is Mus musculus. The series can be described thus: Toxicity in Mus musculus (mouse) assessed as irritation. It is filed as organism-based. The conditions noted are these: in vivo.
Series [1] deals with Pseudomonas aeruginosa. The series can be described thus: Antibacterial activity against Pseudomonas aeruginosa at 100 ug/ml by agar cup-plate method. The format is functional. The conditions noted are these: read-out: IZ.
Series [2] has as its system Escherichia coli. The series can be described thus: Antibacterial activity against Escherichia coli at 100 ug/ml by agar cup-plate method. It is filed as functional. The conditions noted are these: read-out: IZ.
The subject of series [3] is Pseudomonas. Nature of the series: Antibacterial activity against […] at 100 ug/ml by agar cup-plate method. It is filed as functional. The conditions noted are these: read-out: IZ.
Series [4] has as its system Staphylococcus aureus. The series can be described thus: Antibacterial activity against Staphylococcus aureus at 100 ug/ml by agar cup-plate method. To be noted: read-out: IZ. The format is functional.
Series [5] deals with Pseudomonas aeruginosa. Nature of the series: Antibacterial activity against Pseudomonas aeruginosa after 24 hr by broth dilution method. It is filed as functional.
Series [6] deals with Escherichia coli. Nature of the series: Antibacterial activity against Escherichia coli after 24 hr by broth dilution method. The format is functional. For orientation: Dilution methods test growth across graded concentrations, often in twofold steps.
The subject of series [7] is Pseudomonas. The series can be described thus: Antibacterial activity against […] after 24 hr by broth dilution method. The format is functional.
For series [8], the system named is Staphylococcus aureus. The series can be described thus: Antibacterial activity against Staphylococcus aureus after 24 hr by broth dilution method. The format is functional.

The text below walks through data of ChEMBL document CHEMBL3045543, “Predictions and correlations of structure activity relationship of some aminoantipyrine derivatives on the basis of theoretical and experimental ground” (Med Chem Res, 2012).

Molecules are shown by their SMILES. In brackets after ≈: the same amount, converted by molar mass.

For the compound `Cc1c(/N=C/c2ccccc2)c(=O)n(-c2ccccc2)n1C`, in the series listed under Mus musculus, the Activity entry is on record as “Non-toxic”. In addition, the zone of inhibition at 100 µg/mL with Pseudomonas aeruginosa [1] was under 5 mm; in the series with Escherichia coli [2] it was under 5 mm; with Pseudomonas [3], 10 mm; with Staphylococcus aureus [4], over 15 mm.
For the compound `Cc1c(/N=C/c2ccc(Cl)cc2)c(=O)n(-c2ccccc2)n1C`, the Activity entry in the series filed under Mus musculus is recorded as “Non-toxic”. Moreover, the zone of inhibition at 100 µg/mL with Pseudomonas aeruginosa [1] is 5 mm; in the series on Escherichia coli [2], under 5 mm; in the series on Pseudomonas [3] it was under 5 mm; in the series on Staphylococcus aureus [4], 10 mm.
As for `Cc1c(/N=C/c2ccc(O)cc2)c(=O)n(-c2ccccc2)n1C`, the Activity entry in the series listed under Mus musculus is on record as “Non-toxic”. Also, the zone of inhibition at 100 µg/mL is 5 mm with Pseudomonas aeruginosa [1], 5 mm in the series on Escherichia coli [2], under 5 mm in the series on Pseudomonas [3] and 10 mm in the series on Staphylococcus aureus [4].
In the case of `COc1ccc(/C=N/c2c(C)n(C)n(-c3ccccc3)c2=O)cc1`, the Activity entry in the series listed under Mus musculus was “Non-toxic”. In addition, the zone of inhibition at 100 µg/mL in the series on Pseudomonas aeruginosa [1] was under 5 mm; in the series with Escherichia coli [2], 5 mm; in the series with Pseudomonas [3], 10 mm; with Staphylococcus aureus [4], 5 mm.
With `Cc1c(/N=C/c2cccc([N+](=O)[O-])c2)c(=O)n(-c2ccccc2)n1C`, the Activity entry in the series listed under Mus musculus is reported as “Non-toxic”. Moreover, the zone of inhibition at 100 µg/mL with Pseudomonas aeruginosa [1] is under 5 mm; in the series with Escherichia coli [2] it was 5 mm; with Pseudomonas [3] it was under 5 mm; in the series with Staphylococcus aureus [4], 5 mm.
Regarding `Cc1c(/N=C/c2ccccc2Cl)c(=O)n(-c2ccccc2)n1C`, the Activity entry in the series listed under Mus musculus is listed as “Non-toxic”. Moreover, the minimal inhibitory concentration (MIC) in the series on Pseudomonas aeruginosa [5] is 100 µg/mL (≈ 307 µM); against Escherichia coli [6] it was 100 µg/mL (≈ 307 µM); against Pseudomonas [7], 100 µg/mL (≈ 307 µM); with Staphylococcus aureus [8], 75 µg/mL (≈ 230 µM). Besides, the zone of inhibition at 100 µg/mL in the series with Pseudomonas aeruginosa [1], in the series with Escherichia coli [2], in the series with Pseudomonas [3] and in the series on Staphylococcus aureus [4] was over 15 mm each time.
For `Cc1c(/N=C/c2ccco2)c(=O)n(-c2ccccc2)n1C`, in the series listed under Mus musculus, the Activity result is recorded as “Non-toxic”. Besides, the minimum inhibitory concentration (MIC) in the series with Pseudomonas aeruginosa [5] worked out at 75 µg/mL (≈ 267 µM); in the series with Escherichia coli [6], 75 µg/mL (≈ 267 µM); against Pseudomonas [7], 75 µg/mL (≈ 267 µM); against Staphylococcus aureus [8], 50 µg/mL (≈ 178 µM). For the same compound, the zone of inhibition at 100 µg/mL with Pseudomonas aeruginosa [1], in the series on Escherichia coli [2], in the series with Pseudomonas [3] and in the series on Staphylococcus aureus [4] was over 15 mm in each case.
With `Cc1c(/N=C/c2ccccc2O)c(=O)n(-c2ccccc2)n1C`, the Activity entry in the series listed under Mus musculus was “Non-toxic”. Moreover, the minimum inhibitory concentration (MIC) was found to be 100 µg/mL (≈ 325 µM) in the series with Pseudomonas aeruginosa [5], 75 µg/mL (≈ 244 µM) with Escherichia coli [6], 75 µg/mL (≈ 244 µM) in the series with Pseudomonas [7] and 50 µg/mL (≈ 163 µM) with Staphylococcus aureus [8]. The zone of inhibition at 100 µg/mL is 10 mm in the series with Pseudomonas aeruginosa [1], over 15 mm in the series with Escherichia coli [2], over 15 mm in the series on Pseudomonas [3] and over 15 mm in the series with Staphylococcus aureus [4].
As to `Cc1c(/N=C/c2ccccc2[N+](=O)[O-])c(=O)n(-c2ccccc2)n1C`, the Activity result in the series filed under Mus musculus is “Non-toxic”. The zone of inhibition at 100 µg/mL in the series on Pseudomonas aeruginosa [1] is 5 mm; in the series with Escherichia coli [2] it was under 5 mm; in the series with Pseudomonas [3] it was under 5 mm; in the series with Staphylococcus aureus [4] it was 10 mm.
Regarding `CC1(C)S[C@@H]2[C@H](NC(=O)[C@H](N)c3ccccc3)C(=O)N2[C@H]1C(=O)O` [AMPICILLIN], in the series filed under Mus musculus, the Activity result is reported as “Non-toxic”. Further, the MIC in the series on Pseudomonas aeruginosa [5], against Escherichia coli [6], against Pseudomonas [7] and in the series on Staphylococcus aureus [8] was 25 µg/mL (≈ 71.5 µM) in each case. Moreover, the zone of inhibition at 100 µg/mL is over 15 mm in the series with Pseudomonas aeruginosa [1], 10 mm in the series with Escherichia coli [2], 10 mm in the series with Pseudomonas [3] and over 15 mm with Staphylococcus aureus [4].
Consider `[H]/N=C(/N)N[C@H]1[C@H](O)[C@@H](O)[C@H](O[C@@H]2O[C@@H](C)[C@](O)(C=O)[C@H]2O[C@@H]2O[C@@H](CO)[C@H](O)[C@@H](O)[C@@H]2NC)[C@@H](N/C(N)=N\[H])[C@@H]1O` [STREPTOMYCIN], for which the Activity entry in the series filed under Mus musculus was “Non-toxic”. For the same compound, the zone of inhibition at 100 µg/mL with Pseudomonas aeruginosa [1], in the series on Escherichia coli [2], in the series on Pseudomonas [3] and in the series with Staphylococcus aureus [4] was over 15 mm in each case.

In general, MIC refers to the least concentration at which growth counts as inhibited.
